Laboratory results taken from patent publication US9662318B2, “Bitopic muscarinic agonists and antagonists and methods of synthesis and use thereof” (BARRY UNIVERSITY, INC., priority 2012, dated 2017).
Like-named read-outs stand apart in the source and are kept apart here.

What was measured:
M1 muscarinic receptor [1] = target: T1, M1 muscarinic receptor (Homo sapiens, UniProt P11229); experiment: Competition with [3H]NMS (equilibrium binding, CHO membranes); settings: for IC50: competition with [^3H]NMS
T1 sequence (P11229 1-460): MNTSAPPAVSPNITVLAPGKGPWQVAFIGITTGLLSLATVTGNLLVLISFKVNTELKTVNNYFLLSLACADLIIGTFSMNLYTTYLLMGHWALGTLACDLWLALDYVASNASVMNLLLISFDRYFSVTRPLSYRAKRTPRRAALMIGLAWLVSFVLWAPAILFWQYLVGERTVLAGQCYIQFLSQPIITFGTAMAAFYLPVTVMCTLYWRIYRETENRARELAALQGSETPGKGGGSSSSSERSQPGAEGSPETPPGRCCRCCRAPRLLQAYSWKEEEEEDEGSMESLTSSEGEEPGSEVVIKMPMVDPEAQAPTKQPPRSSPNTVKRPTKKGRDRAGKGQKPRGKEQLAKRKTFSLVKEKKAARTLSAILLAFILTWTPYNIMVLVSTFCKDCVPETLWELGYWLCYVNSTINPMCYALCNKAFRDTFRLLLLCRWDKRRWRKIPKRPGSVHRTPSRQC
Method: (§1) All radioligand binding experiments were optimized and carried out as described earlier. Briefly, membranes were incubated in 96-well plates at 30° C. in the incubation medium described. […] Dissociation was initiated by addition of atropine to final concentration of 5 Tested ligands in final concentration of 100 μM were added concurrently with atropine. Incubations were terminated by filtration through Whatman GF/C glass fiber filters (Whatman) using a Brandel cell harvester (Brandel, Gaithersburg, Md., USA). Filters were dried in vacuum for 1 h while heated at 80° C. and then solid scintillator Meltilex A was melted on filters (105° C., 90 s) using a hot plate. The filters were cooled and counted in Wallac Microbeta scintillation counter.
(§2) Inhibition constant KI was calculated as: […]

M3 muscarinic receptor [2] = target: T2, M3 muscarinic receptor (Homo sapiens, UniProt P20309); experiment: as above; settings: for IC50: competition with [^3H]NMS
T2 construct: host or cells: Chinese hamster ovary cells
T2 sequence (P20309 whole entry): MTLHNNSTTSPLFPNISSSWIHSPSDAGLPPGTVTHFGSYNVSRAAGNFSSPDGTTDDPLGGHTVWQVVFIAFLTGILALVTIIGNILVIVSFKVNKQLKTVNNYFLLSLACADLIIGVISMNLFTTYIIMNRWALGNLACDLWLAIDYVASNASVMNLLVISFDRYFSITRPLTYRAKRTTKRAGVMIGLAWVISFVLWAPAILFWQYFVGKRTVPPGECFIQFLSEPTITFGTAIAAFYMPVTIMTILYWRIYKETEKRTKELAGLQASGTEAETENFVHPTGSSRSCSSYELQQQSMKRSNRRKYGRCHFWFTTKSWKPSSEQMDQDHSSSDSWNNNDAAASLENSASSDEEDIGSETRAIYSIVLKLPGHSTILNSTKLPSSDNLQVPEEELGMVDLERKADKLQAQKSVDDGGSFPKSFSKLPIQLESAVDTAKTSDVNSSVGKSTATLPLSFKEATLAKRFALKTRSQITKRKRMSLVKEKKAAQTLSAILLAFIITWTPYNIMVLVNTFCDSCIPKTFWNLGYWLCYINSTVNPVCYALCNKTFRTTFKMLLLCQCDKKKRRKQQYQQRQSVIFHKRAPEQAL
Method: as §1, §2

M4 muscarinic receptor [3] = target: T3, M4 muscarinic receptor (Homo sapiens, UniProt P08173); experiment: as above; settings: for IC50: competition with [^3H]NMS
T3 construct: host or cells: Chinese hamster ovary cells
T3 sequence (P08173 1-479): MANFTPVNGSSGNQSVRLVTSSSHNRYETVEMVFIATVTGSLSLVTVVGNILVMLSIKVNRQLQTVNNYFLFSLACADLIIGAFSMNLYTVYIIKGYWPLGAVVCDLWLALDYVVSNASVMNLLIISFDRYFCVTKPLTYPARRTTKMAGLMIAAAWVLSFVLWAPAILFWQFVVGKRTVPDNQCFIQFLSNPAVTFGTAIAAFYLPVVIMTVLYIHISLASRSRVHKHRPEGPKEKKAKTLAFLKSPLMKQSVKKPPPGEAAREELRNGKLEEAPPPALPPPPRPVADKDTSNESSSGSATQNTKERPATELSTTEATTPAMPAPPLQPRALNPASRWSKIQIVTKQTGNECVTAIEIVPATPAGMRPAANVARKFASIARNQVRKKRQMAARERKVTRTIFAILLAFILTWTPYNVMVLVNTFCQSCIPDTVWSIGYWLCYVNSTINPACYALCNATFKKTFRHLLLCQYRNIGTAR
Method: as §1, §2

M5 muscarinic receptor [4] = target: T4, M5 muscarinic receptor (Homo sapiens, UniProt P08912); experiment: as above; settings: for IC50: competition with [^3H]NMS
T4 construct: host or cells: CHO (Chinese hamster ovary) cells, stably transfected
T4 sequence (P08912 1-532): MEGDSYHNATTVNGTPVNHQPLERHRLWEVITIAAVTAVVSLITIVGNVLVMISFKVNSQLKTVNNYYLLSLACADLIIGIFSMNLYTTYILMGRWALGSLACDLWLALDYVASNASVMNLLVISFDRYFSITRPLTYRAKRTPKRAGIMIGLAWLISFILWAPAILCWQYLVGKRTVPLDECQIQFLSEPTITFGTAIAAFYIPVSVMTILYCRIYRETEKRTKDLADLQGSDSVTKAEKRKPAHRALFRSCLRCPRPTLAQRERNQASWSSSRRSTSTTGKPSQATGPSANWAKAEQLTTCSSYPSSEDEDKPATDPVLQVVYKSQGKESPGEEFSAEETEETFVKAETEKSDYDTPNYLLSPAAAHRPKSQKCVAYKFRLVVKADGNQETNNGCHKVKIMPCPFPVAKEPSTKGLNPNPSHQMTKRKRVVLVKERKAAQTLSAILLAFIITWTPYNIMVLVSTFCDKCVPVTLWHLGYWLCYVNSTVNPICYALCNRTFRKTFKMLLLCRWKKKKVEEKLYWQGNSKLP
Method: as §1, §2

M1 muscarinic receptor [5] = target: T1, M1 muscarinic receptor; experiment: biochemical; assay type: binding; settings: competition with [^3H]QNB
M4 muscarinic receptor [6] = target: T3, M4 muscarinic receptor; experiment: biochemical; assay type: binding; settings: competition with [^3H]QNB
M3 muscarinic receptor [7] = target: T2, M3 muscarinic receptor; experiment: Accumulation of inositol phosphates in CHO cells; assay type: cell-based; settings: ligand 0.1 mM, no carbachol
Method: (§3) Chinese hamster ovary cells stably transfected with the genes of human variants of muscarinic receptors were purchased from Missouri S&T cDNA Resource Center (Rolla, Mo., USA). […] Cells were grown to confluency in 75 cm^2 flasks in Dulbecco's modified Eagle's medium supplemented with 10% fetal bovine serum and 2 million of cells were subcultured to 100 mm Petri dishes. Medium was supplemented with 5 mM butyrate for the last 24 hours of cultivation to increase receptor expression.
(§4) Inositolphosphates formation was determined in cells pre-labeled overnight by 0.5 μM [^3H]myo-inositol in 0.3 mL of DMEM (3 μCi/ml) at 37° C. […] Incubation was stopped by removal of incubation buffer and addition 0.2 mL 20% trichloracetic acid (TCA). After 1 h incubation at 4° C., 100 μL, of TCA extracts were taken for measurement. Rest of the TCA was removed, and TCA precipitates were washed with 200 μL TCA and dissolved in 200 μL of 1 M NaOH. After 1 h incubation at 4° C., 100 μL, of NaOH lysates were taken for measurement. Radioactivity in TCA extracts and NaOH lysates were determined by liquid scintillation counting. The rate of inositolphosphates accumulation was calculated as a percentage of the soluble (released) inositolphosphates from the total incorporated radioactivity (sum of radioactivity in NaOH lysates and TCA extracts).
(§5) EC50 values are expressed as negative logarithms and EMAX values as folds over basal, Table 7.

M4 muscarinic receptor [8] = target: T3, M4 muscarinic receptor; experiment: Accumulation of inositol phosphates in CHO cells; assay type: cell-based; settings: M4; ligand 0.1 mM; no carbachol
Method: as §3, §4, §5

M5 muscarinic receptor [9] = target: T4, M5 muscarinic receptor; experiment: Accumulation of inositol phosphates in CHO cells; assay type: cell-based; settings: M5; ligand 0.1 mM; no carbachol
Method: as §3, §4, §5

[10] = system: M1-M5 muscarinic receptors; experiment: Competition with [3H]NMS, statements over all subtypes; assay type: binding, human; settings: competition experiments, all M1-M5
[11] = system: M1-M5 muscarinic receptors; assay type: binding, human; settings: competition experiments, all M1-M5
[12] = M1, average of 3, read-out: avg IC50
[13] = M1, experiment 1, read-out: IC50—1
[14] = M1, experiment 2, read-out: IC50—2
[15] = M1, experiment 3, read-out: IC50—3
[16] = M4, average of 3, read-out: avg IC50
[17] = M4, experiment 1, read-out: IC50—1
[18] = M4, experiment 2, read-out: IC50—2
[19] = M4, experiment 3, read-out: IC50—3

## CCCCOc1ccc(C(=O)OCC[N+]2(C)CCCCC2)cc1.[I-] [JB-D4, 2-(N-piperidineethyl) p-butoxybenzoate N-methyl iodide]
M1 muscarinic receptor [1]; [12]
  IC50: 14.4 µM
M1 muscarinic receptor [1]; [13]
  IC50: 14.3 µM
M1 muscarinic receptor [1]; [14]
  IC50: 13.8 µM
M1 muscarinic receptor [1]; [15]
  IC50: 15.1 µM
M1 muscarinic receptor [1]; read-out: KI
  Ki: 2.88 µM
M3 muscarinic receptor [2]; M3, average of 3, read-out: avg IC50
  IC50: 16.9 µM
M3 muscarinic receptor [2]; M3, experiment 1, read-out: IC50—1
  IC50: 16.6 µM
M3 muscarinic receptor [2]; M3, experiment 2, read-out: IC50—2
  IC50: 17.2 µM
M3 muscarinic receptor [2]; M3, experiment 3, read-out: IC50—3
  IC50: 16.9 µM
M3 muscarinic receptor [2]; read-out: KI
  Ki: 3.16 µM
M4 muscarinic receptor [3]; [16]
  IC50: 41.8 µM
M4 muscarinic receptor [3]; [17]
  IC50: 43.4 µM
M4 muscarinic receptor [3]; [18]
  IC50: 42 µM
M4 muscarinic receptor [3]; [19]
  IC50: 40 µM
M4 muscarinic receptor [3]; read-out: KI
  Ki: 7.54 µM
M5 muscarinic receptor [4]; M5, average of 3, read-out: avg IC50
  IC50: 12.5 µM
M5 muscarinic receptor [4]; M5, experiment 1, read-out: IC50—1
  IC50: 12.5 µM
M5 muscarinic receptor [4]; M5, experiment 2, read-out: IC50—2
  IC50: 11.2 µM
M5 muscarinic receptor [4]; M5, experiment 3, read-out: IC50—3
  IC50: 13.7 µM
M5 muscarinic receptor [4]; read-out: KI
  Ki: 2.88 µM
M1 muscarinic receptor [5]; M1
  Ki: 1.04 µM
M1 muscarinic receptor [5]; [12]
  IC50: 8.78 µM
M1 muscarinic receptor [5]; [13]
  IC50: 8.72 µM
M1 muscarinic receptor [5]; [14]
  IC50: 9.42 µM
M1 muscarinic receptor [5]; [15]
  IC50: 8.19 µM
M4 muscarinic receptor [6]; M4
  Ki: 3.08 µM
M4 muscarinic receptor [6]; [16]
  IC50: 27.1 µM
M4 muscarinic receptor [6]; [17]
  IC50: 20.6 µM
M4 muscarinic receptor [6]; [18]
  IC50: 32.6 µM
M4 muscarinic receptor [6]; [19]
  IC50: 28.1 µM
M3 muscarinic receptor [7]
  Effect of ligands on basal activity (accumulation of inositol phosphates as percent of accumulation in the absence of the ligand): 102 ± 2%
M4 muscarinic receptor [8]
  Effect of ligands on basal activity (accumulation of inositol phosphates as percent of accumulation in the absence of the ligand): 98 ± 4%
M5 muscarinic receptor [9]
  Effect of ligands on basal activity (accumulation of inositol phosphates as percent of accumulation in the absence of the ligand): 98 ± 3%
[10]
  inhibition of [^3H]NMS binding: fully inhibit
[11]
  inhibition of QNB binding: fully inhibit
